# Assays:
# [1] = test system: lac promoter in BL21 cells (pEC-GFP); assay: IPTG induction of GFP from lac promoter (pEC-GFP) in BL21 cells; format: cell-based, E. coli; details: 0.01 mM and 0.1 mM IPTG, 24 hours
# [2] = test system: synthetic cyn promoter (pCyn-v2-GFP) in E. coli BW25113-Wt
# [3] = test system: E. coli cells; details: LB media, 37° C., OD600
# [4] = test system: cyn promoter/operator regulated by cynR (pCyn-v1-GFP); assay: GFP expression from pCyn-v1-GFP (native cyn promoter) induced with cyanate or azide, flow cytometry and bulk lysate fluorescence; format: cell-based, E. coli; details: 1 mM inducer
smiles,measurement,setting,value
CC(C)S[C@@H]1O[C@H](CO)[C@H](O)[C@H](O)[C@H]1O [IPTG],GFP expression at lower inducer concentrations over time,[1],GFP expression increased with time and reached maximum after 24 hours
[N-]=[N+]=[N-] [sodium azide],azide concentration until which GFP expression increased,[2],1 mM
same,detection limit of the synthetic promoter for azide,[2],> 10 µM
same,azide amount showing dramatic influence on the growth of the cells,[3],> 5 mM
N#CO [sodium cyanate],GFP fluorescence of induced cells compared to uninduced control,"[4]; BW25113 wildtype, 19 hours, flow cytometry",did not result in any GFP expression
same,GFP expression of induced cells,[4]; ΔcynS strain (BW25113-sCB1),recovered the GFP expression
